These results are taken from ChEMBL document CHEMBL1153443, “Development of an in-capillary approach to nanoscale automated in vitro cytochromes p450 assays” (J Med Chem, 2009).

The target of this series is CYP2D6 (Homo sapiens, UniProt P10635). The series can be described thus: Inhibition of human recombinant CYP2D6 at 5 uM assessed as blockade of O-demethylation of dextromethorphan in to dextrophan by nanoscale automated in-capillary assay. In kind it is ADME. Particulars: recombinant CYP2D6, probe dextromethorphan (O-demethylation to dextrorphan).
Chain of CYP2D6 (P10635 whole entry): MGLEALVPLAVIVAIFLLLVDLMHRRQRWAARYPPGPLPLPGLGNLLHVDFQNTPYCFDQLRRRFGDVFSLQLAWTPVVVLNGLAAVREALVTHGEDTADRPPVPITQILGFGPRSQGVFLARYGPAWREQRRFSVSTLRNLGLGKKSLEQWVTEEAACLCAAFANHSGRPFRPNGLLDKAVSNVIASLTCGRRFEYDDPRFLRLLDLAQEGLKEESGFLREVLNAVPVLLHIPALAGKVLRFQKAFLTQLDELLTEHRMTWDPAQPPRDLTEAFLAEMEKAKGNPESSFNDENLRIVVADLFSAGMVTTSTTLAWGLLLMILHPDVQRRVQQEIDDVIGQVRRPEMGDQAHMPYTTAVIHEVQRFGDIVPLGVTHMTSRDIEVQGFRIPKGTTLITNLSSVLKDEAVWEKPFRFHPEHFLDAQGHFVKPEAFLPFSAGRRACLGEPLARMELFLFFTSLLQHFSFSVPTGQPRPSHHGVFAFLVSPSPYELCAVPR

Consider `CNCCC(Oc1ccc(C(F)(F)F)cc1)c1ccccc1` (configuration not stated) [FLUOXETINE], for which the inhibition at 5 µM turned out to be 20%. The value for `COc1ccc(C(CN(C)C)C2(O)CCCCC2)cc1` (configuration not stated) [VENLAFAXINE] was 0%.

Usually inhibition stands for the relative decrease from the control value, in per cent.
